Target: T1, CRTH2 receptor (hCRTH2) (Homo sapiens, UniProt Q9Y5Y4)
T1 construct: expressed in transfected cells; host or cells: HEK cells (HEK-hCRTH2 cell line), membranes
T1 sequence (Q9Y5Y4 1-395): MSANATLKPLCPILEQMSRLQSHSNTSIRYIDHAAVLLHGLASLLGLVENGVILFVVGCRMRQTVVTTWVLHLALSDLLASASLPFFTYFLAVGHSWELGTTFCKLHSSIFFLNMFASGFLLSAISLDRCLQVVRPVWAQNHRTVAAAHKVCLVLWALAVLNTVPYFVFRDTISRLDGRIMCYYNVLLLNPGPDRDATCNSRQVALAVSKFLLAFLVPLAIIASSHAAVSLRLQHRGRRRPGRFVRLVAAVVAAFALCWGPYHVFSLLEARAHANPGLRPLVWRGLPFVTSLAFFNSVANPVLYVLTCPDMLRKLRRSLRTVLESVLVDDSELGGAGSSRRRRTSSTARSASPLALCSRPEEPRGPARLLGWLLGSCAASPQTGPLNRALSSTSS
Test: Radioligand binding assay ([3H]PGD2 competition, membranes of HEK-hCRTH2 cell line)
Settings: 3.0 nM [3H]PGD2, HEK-hCRTH2 membranes, 60 min, room temperature; read-out: Ki
How it was run: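 Membranes (8-20 μg protein) from HEK cells expressing human CRTH2 were incubated with [3H]PGD2 and competitor in 1% DMSO for 60 min at room temperature. Non-specific binding was defined with excess PGD2. Bound radioactivity was separated by filtration and counted by melt-on scintillation.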

| Structure (SMILES) | Ki [nM] |
| --- | --- |
| C[C@@](O)(c1ccc(F)cc1)c1cc(-c2ccc3c(=O)n(-c4ccc(F)cc4)c(CCCCC(=O)O)nc3c2)no1 [Example 258] | 10 to 50 |
| C[C@](O)(c1ccc(F)cc1)c1cc(-c2ccc3c(=O)n(-c4ccc(F)cc4)c(CCCCC(=O)O)nc3c2)no1 [Example 259] | 10 to 50 |
| CC(c1ccc(F)cc1)c1cc(-c2ccc3c(=O)n(-c4ccc(F)cc4)c(CCCCC(=O)O)nc3c2)no1 (centres unmarked) [Example 260] | ≤ 10 |
| CCC(c1ccc(F)cc1)c1cc(-c2ccc3c(=O)n(-c4ccc(F)cc4)c(CCCCC(=O)O)nc3c2)no1 (centres unmarked) [Example 261] | ≤ 10 |
| CC(c1ccc(F)cc1)C1(C)CC(c2ccc3c(=O)n(-c4ccc(F)cc4)c(CCCCC(=O)O)nc3c2)=NO1 (centres unmarked) [Example 262] | ≤ 10 |
| C[C@H](c1ccc(F)cc1)c1cc(-c2ccc3c(=O)n(-c4ccc(F)cc4)c(CCCCC(=O)O)nc3c2)no1 [Example 263] | ≤ 10 |
| C[C@@H](c1ccc(F)cc1)c1cc(-c2ccc3c(=O)n(-c4ccc(F)cc4)c(CCCCC(=O)O)nc3c2)no1 [Example 264] | ≤ 10 |
| C[C@@H](O)c1cc(-c2ccc3c(=O)n(-c4ccc(F)cc4)c(CCCCC(=O)O)nc3c2)no1 [Example 265] | 10 to 50 |
| C[C@@H](OCc1ccccc1)c1cc(-c2ccc3c(=O)n(-c4ccc(F)cc4)c(CCCCC(=O)O)nc3c2)no1 [Example 267] | 10 to 50 |
| C[C@H](Oc1ccc(F)cc1)c1cc(-c2ccc3c(=O)n(-c4ccc(F)cc4)c(CCCCC(=O)O)nc3c2)no1 [Example 268] | ≤ 10 |
| O=C(O)CCCCc1nc2cc(-c3cc(COCc4cc(F)cc(F)c4)on3)ccc2c(=O)n1-c1ccc(F)cc1 [Example 269] | ≤ 10 |
| O=C(O)CCCCc1nc2cc(-c3cc(COCc4ccc(F)c(F)c4)on3)ccc2c(=O)n1-c1ccc(F)cc1 [Example 270] | ≤ 10 |
| O=C(O)CCCCc1nc2cc(-c3cc(COCc4cc(F)cc(Cl)c4)on3)ccc2c(=O)n1-c1ccc(F)cc1 [Example 271] | ≤ 10 |
| O=C(O)CCCCc1nc2cc(-c3cc(COCc4ccc(F)cc4F)on3)ccc2c(=O)n1-c1ccc(F)cc1 [Example 272] | ≤ 10 |
| C[C@@H](OCc1cccc(F)c1)c1cc(-c2ccc3c(=O)n(-c4ccc(F)cc4)c(CCCCC(=O)O)nc3c2)no1 [Example 273] | ≤ 10 |
| C[C@@H](OCc1ccc(F)c(F)c1)c1cc(-c2ccc3c(=O)n(-c4ccc(F)cc4)c(CCCCC(=O)O)nc3c2)no1 [Example 274] | 10 to 50 |
| O=C(O)CCCCc1nc2cc(-c3cc(COCc4cc(F)ccc4F)on3)ccc2c(=O)n1-c1ccc(F)cc1 [Example 275] | ≤ 10 |
| O=C(O)CCCCc1nc2cc(-c3cc(COCc4cccc(F)c4)on3)ccc2c(=O)n1-c1ccc(F)cc1 [Example 276] | ≤ 10 |

| Structure (SMILES) | Ki [nM] |
| --- | --- |
| O=C(O)CCCCc1nc2cc(-c3cc(COCc4ccccc4)on3)ccc2c(=O)n1-c1ccc(F)cc1 [Example 277] | 10 to 50 |
| O=C(O)CCCCc1nc2cc(-c3cc(COCc4ccc(F)cc4)on3)ccc2c(=O)n1-c1ccc(F)cc1 [Example 278] | 10 to 50 |
| O=C(O)CCCCc1nc2cc(-c3cc(COCc4ccccc4F)on3)ccc2c(=O)n1-c1ccc(F)cc1 [Example 279] | ≤ 10 |
| O=C(O)CCCCc1nc2cc(-c3cc(COCc4ccc(-c5ccccc5)cc4)on3)ccc2c(=O)n1-c1ccc(F)cc1 [Example 280] | 10 to 50 |
| O=C(O)CCCCc1nc2cc(-c3cc(COCc4cccc(-c5ccccc5)c4)on3)ccc2c(=O)n1-c1ccc(F)cc1 [Example 281] | 10 to 50 |
| O=C(O)CCCCc1nc2cc(-c3cc(COCc4cccc(-c5ccccc5)c4)on3)ccc2c(=O)n1-c1ccc(F)cc1 [Example 282] | ≤ 10 |
| O=C(O)CCCCc1nc2cc(-c3cc(COCc4cccc5cccnc45)on3)ccc2c(=O)n1-c1ccc(F)cc1 [Example 283] | 10 to 50 |
| O=C(O)CCCCc1nc2cc(-c3cc(COCc4ccnc5ccccc45)on3)ccc2c(=O)n1-c1ccc(F)cc1 [Example 284] | 10 to 50 |
| C[C@@H]1C(c2ccc3c(=O)n(-c4ccc(F)cc4)c(CCCCC(=O)O)nc3c2)=NO[C@@H]1c1ccccc1 [Example 285] | ≤ 10 |
| C[C@H]1C(c2ccc3c(=O)n(-c4ccc(F)cc4)c(CCCCC(=O)O)nc3c2)=NO[C@@H]1c1ccccc1 [Example 286] | ≤ 10 |
| C[C@H]1ON=C(c2ccc3c(=O)n(-c4ccc(F)cc4)c(CCCCC(=O)O)nc3c2)[C@H]1c1ccccc1 [Example 287] | ≤ 10 |
| C[C@]1([C@H](O)c2ccc(F)cc2)CC(c2ccc3c(=O)n(-c4ccc(F)cc4)c(CCCCC(=O)O)nc3c2)=NO1 [Example 288] | 10 to 50 |
| C[C@@]1([C@H](O)c2ccc(F)cc2)CC(c2ccc3c(=O)n(-c4ccc(F)cc4)c(CCCCC(=O)O)nc3c2)=NO1 [Example 289] | ≤ 10 |
| C[C@]1([C@@H](O)c2ccc(F)cc2)CC(c2ccc3c(=O)n(-c4ccc(F)cc4)c(CCCCC(=O)O)nc3c2)=NO1 [Example 290] | ≤ 10 |
| C[C@@]1([C@@H](O)c2ccc(F)cc2)CC(c2ccc3c(=O)n(-c4ccc(F)cc4)c(CCCCC(=O)O)nc3c2)=NO1 [Example 291] | 10 to 50 |
| C[C@]1(Cc2ccc(F)cc2)CC(c2ccc3c(=O)n(-c4ccc(F)cc4)c(CCCCC(=O)O)nc3c2)=NO1 [Example 292] | 10 to 50 |
| C[C@@]1(Cc2ccc(F)cc2)CC(c2ccc3c(=O)n(-c4ccc(F)cc4)c(CCCCC(=O)O)nc3c2)=NO1 [Example 293] | 10 to 50 |

Reference: patent US8927559B2, “Quinazolinone-type compounds as CRTH2 antagonists” (Merck Sharp & Dohme Corp., priority 2010, dated 2015)
